The values below come from US20110263588A1, “TRICYCLIC COMPOUNDS AS GLUTAMATE RECEPTOR MODULATORS” (GLAXO GROUP LIMITED, priority 2008, published 2011).

A value given as a limit tells only on which side of the number the result lay.

In the first assay the target is T1, human mGlu5 recombinant receptor (Homo sapiens, UniProt P41594).
T1 construct: expressed in transfected cells; host or cells: inducible CHO cell line stably expressing Aequorin (Euroscreen FAST); doxycycline-responsive promoter
T1 sequence (P41594 21-1212): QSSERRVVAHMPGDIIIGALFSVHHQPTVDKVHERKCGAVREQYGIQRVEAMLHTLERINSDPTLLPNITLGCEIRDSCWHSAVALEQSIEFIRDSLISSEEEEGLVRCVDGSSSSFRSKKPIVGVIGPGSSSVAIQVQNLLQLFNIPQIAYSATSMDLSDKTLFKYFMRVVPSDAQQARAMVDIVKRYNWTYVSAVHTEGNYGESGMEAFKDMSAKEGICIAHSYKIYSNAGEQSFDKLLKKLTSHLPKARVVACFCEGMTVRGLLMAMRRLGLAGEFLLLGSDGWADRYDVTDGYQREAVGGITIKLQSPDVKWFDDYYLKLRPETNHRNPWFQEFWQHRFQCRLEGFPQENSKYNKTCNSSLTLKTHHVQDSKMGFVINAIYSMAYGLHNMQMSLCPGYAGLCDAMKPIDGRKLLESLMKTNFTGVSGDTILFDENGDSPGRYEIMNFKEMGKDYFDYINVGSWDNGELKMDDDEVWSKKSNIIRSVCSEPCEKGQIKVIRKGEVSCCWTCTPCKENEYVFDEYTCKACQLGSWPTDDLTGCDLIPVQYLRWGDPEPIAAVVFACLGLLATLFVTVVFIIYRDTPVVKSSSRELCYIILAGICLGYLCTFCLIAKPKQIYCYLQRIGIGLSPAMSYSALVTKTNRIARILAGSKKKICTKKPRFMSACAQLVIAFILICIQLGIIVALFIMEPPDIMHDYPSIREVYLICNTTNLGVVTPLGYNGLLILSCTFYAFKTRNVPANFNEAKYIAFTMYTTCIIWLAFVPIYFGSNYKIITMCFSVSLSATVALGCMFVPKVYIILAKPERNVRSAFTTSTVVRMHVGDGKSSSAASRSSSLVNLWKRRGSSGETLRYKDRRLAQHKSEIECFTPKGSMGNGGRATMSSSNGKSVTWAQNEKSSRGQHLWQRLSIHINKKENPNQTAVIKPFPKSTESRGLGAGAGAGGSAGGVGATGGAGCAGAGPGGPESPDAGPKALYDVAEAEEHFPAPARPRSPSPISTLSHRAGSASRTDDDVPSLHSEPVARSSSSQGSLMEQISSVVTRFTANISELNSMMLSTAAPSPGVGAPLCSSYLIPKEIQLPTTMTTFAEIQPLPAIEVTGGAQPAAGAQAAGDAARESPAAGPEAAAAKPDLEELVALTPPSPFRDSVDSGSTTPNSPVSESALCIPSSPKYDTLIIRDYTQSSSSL
Put plainly: mGluR5 calcium mobilization in inducible mGluR5 CHO cells (aequorin luminescence, antagonist mode). Format: cell-based. To be noted: Table 2; antagonist activity against EC80 glutamate, inducible CHO cell line expressing human mGlu5 and Aequorin; read-out: IC50 (uM) Ca^++ flux. The source says:
mGluR5 Calcium Mobilization in Inducible mGluR5 CHO Cells
To functionally measure mGluR5 calcium mobilization in response to agonists or antagonists, an inducible CHO cell line expressing the human mGlu5 recombinant receptor was used. This cell line also stably expressed Aequorin (Euroscreen FAST), a photoprotein that spontaneously couples with coelenterazine h when added exogenously in the cell media. The Aequorin-coelenterzine h complex undergoes a conformational change upon binding of calcium ions which results in the emission of blue light (wavelength 469 nm) that was measured using a Hamamatsu Functional Drug Screening System 6000.
mGluR5 expression was induced by a doxycycline responsive promoter by growing cells to mid-log phase for 18 hours in media without antibiotics and supplemented with doxycycline (600 ng/mL). Cells were detached from the plate by gentle flushing using PBS-EDTA (5 mM EDTA) and centrifuged for collection and resuspended in “assay buffer” (HBSS, 2.1 mM CaCl2, 2 ug/mL glutamate-pyruvate transaminase, 4 mM MEM sodium pyruvate, and 0.1% protease free BSA). Cells were incubated with coelenterazine h (Molecular Probes) at room temperature for 4 hours before testing.
To measure mGluR5 antagonist activity, cell suspensions containing test compound were mixed with EC80 glutamate and emission of light was recorded. Reference and test compounds were tested at several concentrations in duplicate to obtain dose response curves using the Prism GraphPad software (GraphPad Software Inc.). IC50 values were calculated from the dose response curves using the equation:
Y=Bottom+(Top−Bottom)/(1+10̂((LogEC50−X)*HillSlope)).
What is called IC50 is the concentration that inhibits the measured activity by half. On to `Cn1nc(C(=O)Nc2cccc(Cl)c2)c2c1-c1cc(F)ccc1OC2` [Example 1, N-(3-Chlorophenyl)-8-fluoro-1-methyl-1,4-dihydrochromeno[4,3-c]pyrazole-3-carboxamide], for which the IC50 is less than 1 µM. In the case of `Cn1nc2c(c1C(=O)Nc1cccc(Cl)c1)COc1ccc(F)cc1-2` [Example 2, N-(3-Chlorophenyl)-8-fluoro-2-methyl-2,4-dihydrochromeno[4,3-c]pyrazole-3-carboxamide], the IC50 is less than 1 µM. In the case of `Cn1nc(C(=O)Nc2cc(Cl)ccn2)c2c1-c1ccccc1OC2` [Example 3, N-(4-Chloropyridin-2-yl)-1-methyl-1,4-dihydrochromeno[4,3-c]pyrazole-3-carboxamide], the IC50 was in the range of 1 to 10 µM. Still for that read-out and setting: for `Cn1nc(C(=O)Nc2cccc(Cl)c2)c2c1-c1ccccc1OC2(C)C` [Example 4, N-(3-Chlorophenyl)-1,4,4-trimethyl-1,4-dihydrochromeno[4,3-c]pyrazole-3-carboxamide] the value was more than 10 µM; for `Cn1nc(C(=O)Nc2cccc(Cl)c2)c2c1-c1cc(Cl)ccc1OC2` [Example 5, N-(3-Chlorophenyl)-8-chloro-1-methyl-1,4-dihydrochromeno[4,3-c]pyrazole-3-carboxamide], more than 10 µM; for `Cc1cccc(NC(=O)c2nn(C)c3c2COc2cc(F)ccc2-3)n1` [Example 6, 7-Fluoro-1-methyl-N-(6-methylpyridin-2-yl)-1,4-dihydrochromeno[4,3-c]pyrazole-3-carboxamide], more than 10 µM. The same measure, in the same setting: for `Cc1cccc(NC(=O)c2n[nH]c3c2COc2ccccc2-3)n1` [Example 7, N-(6-Methylpyridin-2-yl)-1,4-dihydrochromeno[4,3-c]pyrazole-3-carboxamide] the value was more than 10 µM; for `Cn1nc(C(=O)Nc2cc(C#N)ccn2)c2c1-c1ccccc1OC2` [Example 8, N-(4-Cyanopyridin-2-yl)-1-methyl-1,4-dihydrochromeno[4,3-c]pyrazole-3-carboxamide], more than 10 µM; for `Cn1nc(C(=O)Nc2ccc3c(c2)OCCO3)c2c1-c1ccccc1OC2` [Example 9, N-(2,3-Dihydrobenzo[b][1,4]dioxin-6-yl)-1-methyl-1,4-dihydrochromeno[4,3-c]pyrazole-3-carboxamide], more than 10 µM. In the case of `Cn1nc(C(=O)N2CCOc3ccccc32)c2c1-c1ccccc1OC2` [Example 10, (2H-Benzo[b][1,4]oxazin-4(3H)-yl)(1-methyl-1,4-dihydrochromeno[4,3-c]pyrazol-3-yl)methanone], the IC50 is more than 10 µM. Still for that read-out and setting: under `CCN(Cc1nn(C)c2c1COc1ccccc1-2)C(=O)c1ccc(Br)o1` [Example 11, 5-Bromo-N-ethyl-N-((1-methyl-1,4-dihydrochromeno[4,3-c]pyrazol-3-yl)methyl)furan-2-carboxamide] stands more than 10 µM; under `Cn1nc(CNc2cccc(Cl)c2)c2c1-c1ccccc1OC2` [Example 12], 1 to 10 µM; under `Cc1cccc(NC(=O)c2nn(C)c3c2CCc2cccnc2-3)n1` [Example 13, 1-Methyl-N-(6-methylpyridin-2-yl)-4,5-dihydro-1H-pyrazolo[4,3-h]quinoline-3-carboxamide], less than 1 µM. As for `Cn1nc(C(=O)Nc2cccc(Cl)c2)c2c1-c1ccccc1CC2` [Example 14, N-(3-Chlorophenyl)-1-methyl-4,5-dihydro-1H-benzo[g]indazole-3-carboxamide], the IC50 is less than 1 µM. For the compound `Cc1cccc(NC(=O)c2nn(C(C)C)c3c2CCc2cccnc2-3)n1` [Example 15], the IC50 is more than 10 µM. In the case of `CCn1nc(C(=O)Nc2cccc(C)n2)c2c1-c1ncccc1CC2` [Example 16, 1-Ethyl-N-(6-methylpyridin-2-yl)-4,5-dihydro-1H-pyrazolo[4,3-h]quinoline-3-carboxamide], the IC50 is less than 1 µM.

With `Cc1cccc(NC(=O)c2nn(C)c3c2CCc2ccncc2-3)n1` [Example 17, 1-Methyl-N-(6-methylpyridin-2-yl)-4,5-dihydro-1H-pyrazolo[4,3-h]isoquinoline-3-carboxamide], the IC50 was less than 1 µM. Same read-out and setting: under `Cc1cccc(NC(=O)c2nn(C)c3c2CCc2ccc(C)nc2-3)n1` [Example 18] stands less than 1 µM. Still for that read-out and setting: under `CC(=O)N1Cc2c(C(=O)Nc3cccc(Cl)c3)nn(C)c2-c2ccccc21` [Example 19] stands less than 1 µM.

Turning to `Cn1nc(C(=O)Nc2cccc(Cl)c2)c2cnc3ccccc3c21` [Example 20, N-(3-Chlorophenyl)-1-methyl-1H-pyrazolo[4,3-c]quinoline-3-carboxamide], the IC50 is less than 1 µM. Still for that read-out and setting: for `Cn1nc(C(=O)Nc2cccc(Cl)c2)c2c1-c1ccccc1NC2` [Example 21, N-(3-Chlorophenyl)-1-methyl-4,5-dihydro-1H-pyrazolo[4,3-c]quinoline-3-carboxamide] the value was less than 1 µM; for `Cc1cccc(NC(=O)c2nn(C)c3c2CCCc2cccnc2-3)n1` [Example 22, 3-Methyl-N-(6-methylpyridin-2-yl)-3,4,14-triazatricyclo[8.4.0.0̂{2,6}]tetradeca-1(14),2(6),4,10,12-pentaene-5-carboxamide], less than 1 µM. Take `Cc1cccc(NC(=O)c2c3c(nn2C)-c2ncccc2CCC3)n1` [Example 23, 4-Methyl-N-(6-methylpyridin-2-yl)-3,4,14-triazatricyclo[8.4.0.0̂{2,6}]tetradeca-1(14),2,5,10,12-pentaene-5-carboxamide]: the IC50 is more than 10 µM.

`Cn1nc2c(c1C1CCCN(C(=O)c3ccc(F)cc3)C1)CCc1ccccc1-2` (stereo not shown) [Example 24, (4-Fluorophenyl)(3-(2-methyl-4,5-dihydro-2H-benzo[g]indazol-3-yl)piperidin-1-yl)methanone]: the IC50 was more than 10 µM. Turning to `Cn1nc(C2CCCN(C(=O)c3ccc(F)cc3)C2)c2c1-c1ccccc1CC2` (stereo not shown) [Example 25, (4-Fluorophenyl)(3-(1-methyl-4,5-dihydro-1H-benzo[g]indazol-3-yl)piperidin-1-yl)methanone], the IC50 is more than 10 µM.

Still in this assay, the particulars now being: Table 3; antagonist activity against EC80 glutamate, inducible CHO cell line expressing human mGlu5 and Aequorin; read-out: IC50 (uM) Ca^++ flux.
For `Cn1nc(C(=O)Nc2cccc(C(F)(F)F)c2)c2c1-c1ccccc1OC2` [1-methyl-N-(3-(trifluoromethyl)phenyl)-1,4-dihydrochromeno[4,3-c]pyrazole-3-carboxamide], the IC50 is more than 10 µM. Same read-out and setting: for `Cn1nc(C(=O)Nc2ccccc2Cl)c2c1-c1ccccc1OC2` [N-(2-chlorophenyl)-1-methyl-1,4-dihydrochromeno[4,3-c]pyrazole-3-carboxamide] the value was 1 to 10 µM; for `Cn1nc(C(=O)Nc2ccc(F)c(Cl)c2)c2c1-c1ccccc1OC2` [N-(3-chloro-4-fluorophenyl)-1-methyl-1,4-dihydrochromeno[4,3-c]pyrazole-3-carboxamide], more than 10 µM. Still for that read-out and setting: under `Cn1nc(C(=O)NCc2cccc(Cl)c2)c2c1-c1ccccc1OC2` [N-(3-chlorobenzyl)-1-methyl-1,4-dihydrochromeno[4,3-c]pyrazole-3-carboxamide] stands more than 10 µM; under `Cc1ccc2c(c1)-c1c(c(C(=O)Nc3cccc(Cl)c3)nn1C)CS2` [N-(3-chlorophenyl)-1,8-dimethyl-1,4-dihydrothiochromeno[4,3-c]pyrazole-3-carboxamide], less than 1 µM; under `Cn1nc(C(=O)Nc2cccc(Cl)c2)c2c1-c1ccccc1SC2` [N-(3-chlorophenyl)-1-methyl-1,4-dihydrothiochromeno[4,3-c]pyrazole-3-carboxamide], less than 1 µM.
